Data from patent US20100137372A1, “ISOXAZOLINE COMPOUNDS AND THEIR USE IN PEST CONTROL” (priority 2007, published 2010).

Tested on: summer fruit tortrix (Adoxophyes orana)
Assay: Test Example 2: artificial feed irrigated with test dilution, mortality of summer fruit tortrix larvae
Assay type: in vivo
Conditions: 168 h
Procedure: The formulation of the present compound (79) obtained according to Formulation Example 5 was diluted with water so as to have an active ingredient concentration of 2,500 ppm. Thus, a test dilution was prepared.
The bottom of a polyethylene cup having a diameter of 5.5 cm was covered with a filter paper having the same diameter. Artificial feed (Silkmate 2S; Nihon Nosan Kogyo K.K.) sliced in a thickness of 2 mm was placed on the filter paper, and 1 mL of the above-mentioned test dilution was irrigated on the artificial feed. After air-drying of the test dilution, a filter paper having a diameter of 5.5 cm was placed on the artificial feed, and 30 first-instar larvae of summer fruit tortrix (Adoxophyes orana) were released on this filter paper, after which the cup was closed with a lid. After 7 days, larvae of summer fruit tortrix were counted and the mortality was calculated by the following equation:
Mortality (t)=(Number of dead larvae/Number of released larvae)×100

| SMILES | mortality at 2500 ppm [%] |
| --- | --- |
| COC(=O)Nc1cc(C2=NOC(c3cc(Cl)cc(Cl)c3)(C(F)(F)F)C2)ccc1Cl (centres unmarked) [present compound (79), N-(5-(5-(3,5-dichlorophenyl)-4,5-dihydro-5-trifluoromethyl-3-isoxazolyl)-2-chlorophenyl)-O-methylcarbamate] | ≥ 80 |

Same assay, conditions: 168 h, active ingredient concentration 2,500 ppm, 1 mL on artificial feed, 30 first-instar larvae, counted after 7 days, read-out: Mortality

| SMILES | mortality at 2500 ppm [%] |
| --- | --- |
| COC(=O)NNc1cc(C2=NOC(C)(c3ccccc3)C2)ccc1Cl (centres unmarked) [compound number 1-2, reference compound] | 0 |

Tested on: diamondback moth (Plutella xylostella)
Assay: Test Example 1: spray of test liquid on cabbage plant, control efficacy against diamondback moth larvae
Assay type: in vivo
Conditions: 120 h, active ingredient concentration 500 ppm, 20 ml per cup sprayed on cabbage, 10 third-instar larvae, counted after 5 days

| SMILES | pest or weed control at 500 ppm [%] |
| --- | --- |
| COc1ccc(C2=NOC(c3cc(Cl)cc(Cl)c3)(C(F)(F)F)C2)cc1NC(=O)CC(F)(F)F (centres unmarked) [present compound (78), N-(5-(5-(3,5-dichlorophenyl)-4,5-dihydro-5-trifluoromethyl-3-isoxazolyl)-2-methoxyphenyl)-3,3,3-trifluoropropionylamide] | ≥ 80 |
| CCc1ccc(C2=NOC(c3cc(Cl)cc(Cl)c3)(C(F)(F)F)C2)cc1NC(=O)CC(F)(F)F (centres unmarked) [present compound (71), N-(3-(5-(3,5-dichlorophenyl)-4,5-dihydro-5-trifluoromethyl-3-isoxazolyl)-6-ethylphenyl)-3,3,3-trifluoropropionylamide] | ≥ 80 |
| COc1ccc(C(=O)Nc2cc(C3=NOC(c4cc(Cl)cc(Cl)c4)(C(F)(F)F)C3)ccc2C)cc1 (centres unmarked) [present compound (30), N-(5-(5-(3,5-dichlorophenyl)-4,5-dihydro-5-trifluoromethyl-3-isoxazolyl)-2-methylphenyl)-4-methoxybenzamide] | ≥ 80 |
| Cc1ccc(C2=NOC(c3cc(Cl)cc(Cl)c3)(C(F)(F)F)C2)cc1NC(=O)c1ccc(F)cc1 (centres unmarked) [present compound (15), N-(5-(5-(3,5-dichlorophenyl)-4,5-dihydro-5-trifluoromethyl-3-isoxazolyl)-2-methylphenyl)-4-fluorobenzamide] | ≥ 80 |
| O=C(Nc1cccc(C2=NOC(c3cc(Cl)cc(Cl)c3)(C(F)(F)F)C2)c1)c1cccnc1Cl (centres unmarked) [present compound (7), N-(3-(5-(3,5-dichlorophenyl)-4,5-dihydro-5-trifluoromethyl-3-isoxazolyl)phenyl)-2-chloronicotinamide] | ≥ 80 |
| Cc1ccc(C2=NOC(c3cc(Cl)cc(Cl)c3)(C(F)(F)F)C2)cc1NC(=O)OCC(C)C (centres unmarked) [present compound (64), N-(5-(5-(3,5-dichlorophenyl)-4,5-dihydro-5-trifluoromethyl-3-isoxazolyl)-2-methylphenyl)-O-isobutylcarbamate] | ≥ 80 |
| C/C=C/C(=O)Nc1cc(C2=NOC(c3cc(Cl)cc(Cl)c3)(C(F)(F)F)C2)ccc1C (centres unmarked) [present compound (48), N-(5-(5-(3,5-dichlorophenyl)-4,5-dihydro-5-trifluoromethyl-3-isoxazolyl)-2-methylphenyl)crotonamide] | ≥ 80 |
| COC(=O)NNc1cc(C2=NOC(C)(c3ccccc3)C2)ccc1Cl (centres unmarked) [compound number 1-2, reference compound] | 0 |
| Cc1ccc(C2=NOC(c3cc(Cl)cc(Cl)c3)(C(F)(F)F)C2)cc1NC(=O)N(C)C (centres unmarked) [present compound (57), 3-(5-(5-(3,5-dichlorophenyl)-4,5-dihydro-5-trifluoromethyl-3-isoxazolyl)-2-methylphenyl)-1,1-dimethylurea] | ≥ 80 |
| Cc1c(NC(=O)CC(F)(F)F)cccc1C1=NOC(c2cc(Cl)cc(Cl)c2)(C(F)(F)F)C1 (centres unmarked) [present compound (72), N-(3-(5-(3,5-dichlorophenyl)-4,5-dihydro-5-trifluoromethyl-3-isoxazolyl)-2-methylphenyl)-3,3,3-trifluoropropionylamide] | ≥ 80 |
| Cc1ccc(C2=NOC(c3cc(Cl)cc(Cl)c3)(C(F)(F)F)C2)cc1NC(=O)c1cccc(Cl)c1 (centres unmarked) [present compound (17), N-(5-(5-(3,5-dichlorophenyl)-4,5-dihydro-5-trifluoromethyl-3-isoxazolyl)-2-methylphenyl)-3-chlorobenzamide] | ≥ 80 |
| CCOC(=O)Nc1cc(C2=NOC(c3cc(Cl)cc(Cl)c3)(C(F)(F)F)C2)ccc1C (centres unmarked) [present compound (60), N-(5-(5-(3,5-dichlorophenyl)-4,5-dihydro-5-trifluoromethyl-3-isoxazolyl)-2-methylphenyl)-O-ethylcarbamate] | ≥ 80 |
| Cc1ccc(C2=NOC(c3cc(Cl)cc(Cl)c3)(C(F)(F)F)C2)cc1NC(=O)c1ccc(C(F)(F)F)cc1 (centres unmarked) [present compound (31), N-(5-(5-(3,5-dichlorophenyl)-4,5-dihydro-5-trifluoromethyl-3-isoxazolyl)-2-methylphenyl)-4-trifluoromethylbenzamide] | ≥ 80 |
| Cc1ccc(C2=NOC(c3cc(Cl)cc(Cl)c3)(C(F)(F)F)C2)cc1NC(=O)c1ccccc1F (centres unmarked) [present compound (13), N-(5-(5-(3,5-dichlorophenyl)-4,5-dihydro-5-trifluoromethyl-3-isoxazolyl)-2-methylphenyl)-2-fluorobenzamide] | ≥ 80 |
| N#Cc1ccc(C(=O)Nc2cccc(C3=NOC(c4cc(Cl)cc(Cl)c4)(C(F)(F)F)C3)c2)cc1 (centres unmarked) [present compound (5), N-(3-(5-(3,5-dichlorophenyl)-4,5-dihydro-5-trifluoromethyl-3-isoxazolyl)phenyl)-4-cyanobenzamide] | ≥ 80 |
